How the values were obtained:
[1] = Chemical stability study: vitamin contents on storage at 20 °C/ambient RH; type: physicochemical; conditions: for Degraded / Content after 18 months / Recovery (initial versus nominal): Example 4 syrup; for Degraded: 18 months at 20 °C/ambient RH, '+' = increase; for Recovery (initial versus nominal): two batches; for Initial content: Example 4 vitamin and mineral syrup
[2] = as above; type: physicochemical; conditions: Example 1 syrup; for Degraded: 18 months at 20 °C/ambient RH, '+' = increase; for Recovery (initial versus nominal): two batches
Method: A stability study was carried out in order to investigate the chemical stability of the liquid multivitamin product. The product was manufactured according to the protocol set out in Example 1. Two production batches were prepared and subjected to a stability study. The following sampling times were used:
20° C./ambient 0, 3, 6, 12 and 18 months Relative Humidity (RH):
The following results for the vitamin contents after 18 months were obtained for the two production batches respectively at 20° C./ambient RH: […]

Compound: Vitamin B12
- Degraded [1]: 16.7%
- Content after 18 months ([1]; batch 1, 20 °C/ambient RH): 9.7 μg/5 ml
- Content after 18 months ([1]; batch 2, 20 °C/ambient RH): 9.8 μg/5 ml
- Recovery (initial versus nominal) [1]: 104.5%
- Initial content ([1]; batch 1, time 0): 11.6 μg/5 ml
- Initial content ([1]; batch 2, time 0): 11.8 μg/5 ml

Compound: Cc1ncc(C[n+]2csc(CCO)c2C)c(N)n1 [Thiamine]
- Degraded [2]: 8%
- Vitamin content after 18 months ([2]; batch 1, 20 °C/ambient RH): 0.88 mg/10 ml
- Vitamin content after 18 months ([2]; batch 2, 20 °C/ambient RH): 0.89 mg/10 ml
- Initial vitamin content ([2]; production batch 1, time 0): 0.96 mg/10 ml
- Initial vitamin content ([2]; production batch 2, time 0): 0.97 mg/10 ml
- Recovery (initial versus nominal) [2]: 97.5%
- Degraded [1]: 7.9%
- Content after 18 months ([1]; batch 1, 20 °C/ambient RH): 1.16, 1.16 mg/5 ml
- Content after 18 months ([1]; batch 2, 20 °C/ambient RH): 1.16, 1.16 mg/5 ml
- Recovery (initial versus nominal) [1]: 96.9%
- Initial content ([1]; batch 1, time 0): 1.27 mg/5 ml
- Initial content ([1]; batch 2, time 0): 1.25 mg/5 ml

Compound: CC(C)(CO)[C@@H](O)C(=O)NCCC(=O)O [Pantothenic acid]
- Degraded [2]: 16%
- Vitamin content after 18 months ([2]; batch 1, 20 °C/ambient RH): 3.6, 3.6 mg/10 ml
- Vitamin content after 18 months ([2]; batch 2, 20 °C/ambient RH): 3.6, 3.6 mg/10 ml
- Initial vitamin content ([2]; production batch 1, time 0): 4.3 mg/10 ml
- Initial vitamin content ([2]; production batch 2, time 0): 4.4 mg/10 ml
- Recovery (initial versus nominal) [2]: 98.9%
- Degraded [1]: 11.1%
- Content after 18 months ([1]; batch 1, 20 °C/ambient RH): 9.2, 9.2 mg/5 ml
- Content after 18 months ([1]; batch 2, 20 °C/ambient RH): 9.2, 9.2 mg/5 ml
- Recovery (initial versus nominal) [1]: 101.5%
- Initial content ([1]; batch 1, time 0): 10.4 mg/5 ml
- Initial content ([1]; batch 2, time 0): 10.3 mg/5 ml

Compound: NC(=O)c1cccnc1 [Nicotinamide]
- Degraded [2]: 4%
- Vitamin content after 18 months ([2]; batch 1, 20 °C/ambient RH): 11.6 mg/10 ml
- Vitamin content after 18 months ([2]; batch 2, 20 °C/ambient RH): 11.9 mg/10 ml
- Initial vitamin content ([2]; production batch 1, time 0): 12.2 mg/10 ml
- Initial vitamin content ([2]; production batch 2, time 0): 12.3 mg/10 ml
- Recovery (initial versus nominal) [2]: 97.2%
- Degraded [1]: 4.7%
- Content after 18 months ([1]; batch 1, 20 °C/ambient RH): 18.5 mg/5 ml
- Content after 18 months ([1]; batch 2, 20 °C/ambient RH): 18.4 mg/5 ml
- Recovery (initial versus nominal) [1]: 100.8%
- Initial content ([1]; batch 1, time 0): 19.5 mg/5 ml
- Initial content ([1]; batch 2, time 0): 19.2 mg/5 ml

Compound: O=C(O)CCCC[C@@H]1SC[C@@H]2NC(=O)N[C@@H]21 [Biotin]
- Degraded [1]: 9.8%
- Content after 18 months ([1]; batch 1, 20 °C/ambient RH): 103 μg/5 ml
- Content after 18 months ([1]; batch 2, 20 °C/ambient RH): 100 μg/5 ml
- Recovery (initial versus nominal) [1]: 102.3%
- Initial content ([1]; batch 1, time 0): 109 μg/5 ml
- Initial content ([1]; batch 2, time 0): 116 μg/5 ml

Compound: Cc1cc2nc3c(=O)[nH]c(=O)nc-3n(C[C@H](O)[C@H](O)[C@H](O)CO)c2cc1C [Riboflavine]
- Degraded [2]: +2%
- Vitamin content after 18 months ([2]; batch 1, 20 °C/ambient RH): 1.08 mg/10 ml
- Vitamin content after 18 months ([2]; batch 2, 20 °C/ambient RH): 1.09 mg/10 ml
- Initial vitamin content ([2]; production batch 1, time 0): 1.05 mg/10 ml
- Initial vitamin content ([2]; production batch 2, time 0): 1.06 mg/10 ml
- Recovery (initial versus nominal) [2]: 95.9%
- Degraded [1]: 4.0%
- Content after 18 months ([1]; batch 1, 20 °C/ambient RH): 1.19, 1.19 mg/5 ml
- Content after 18 months ([1]; batch 2, 20 °C/ambient RH): 1.19, 1.19 mg/5 ml
- Recovery (initial versus nominal) [1]: 93.9%
- Initial content ([1]; batch 1, time 0): 1.25 mg/5 ml
- Initial content ([1]; batch 2, time 0): 1.23 mg/5 ml

Compound: Cc1ncc(CO)c(CO)c1O [Pyridoxine]
- Degraded [2]: +2%
- Vitamin content after 18 months ([2]; batch 1, 20 °C/ambient RH): 1.25 mg/10 ml
- Vitamin content after 18 months ([2]; batch 2, 20 °C/ambient RH): 1.24 mg/10 ml
- Initial vitamin content ([2]; production batch 1, time 0): 1.21 mg/10 ml
- Initial vitamin content ([2]; production batch 2, time 0): 1.22 mg/10 ml
- Recovery (initial versus nominal) [2]: 96.4%
- Degraded [1]: +1.1%
- Content after 18 months ([1]; batch 1, 20 °C/ambient RH): 0.89 mg/5 ml
- Content after 18 months ([1]; batch 2, 20 °C/ambient RH): 0.88 mg/5 ml
- Recovery (initial versus nominal) [1]: 99.4%
- Initial content ([1]; batch 1, time 0): 0.88 mg/5 ml
- Initial content ([1]; batch 2, time 0): 0.87 mg/5 ml

Compound: CC1=C(/C=C/C(C)=C/C=C/C(C)=C/CO)C(C)(C)CCC1 [Retinol]
- Degraded [2]: 16%
- Vitamin content after 18 months ([2]; batch 1, 20 °C/ambient RH): 518 μg/10 ml
- Vitamin content after 18 months ([2]; batch 2, 20 °C/ambient RH): 525 μg/10 ml
- Initial vitamin content ([2]; production batch 1, time 0): 623 μg/10 ml
- Initial vitamin content ([2]; production batch 2, time 0): 628 μg/10 ml
- Recovery (initial versus nominal) [2]: 113%
- Degraded [1]: 13%
- Content after 18 months ([1]; batch 1, 20 °C/ambient RH): 1869 IU/5 ml
- Content after 18 months ([1]; batch 2, 20 °C/ambient RH): 1862 IU/5 ml
- Recovery (initial versus nominal) [1]: 110.0%
- Initial content ([1]; batch 1, time 0): 2145, 2145 IU/5 ml
- Initial content ([1]; batch 2, time 0): 2145, 2145 IU/5 ml

Compound: C=C1CC[C@H](O)C/C1=C/C=C1\CCC[C@]2(C)[C@@H]([C@H](C)CCCC(C)C)CC[C@@H]12 [Cholecalciferol]
- Degraded [2]: 10%
- Vitamin content after 18 months ([2]; batch 1, 20 °C/ambient RH): 7.3, 7.3 μg/10 ml
- Vitamin content after 18 months ([2]; batch 2, 20 °C/ambient RH): 7.3, 7.3 μg/10 ml
- Initial vitamin content ([2]; production batch 1, time 0): 8.0 μg/10 ml
- Initial vitamin content ([2]; production batch 2, time 0): 8.1 μg/10 ml
- Recovery (initial versus nominal) [2]: 97.6%
- Degraded [1]: +2.5%
- Content after 18 months ([1]; batch 1, 20 °C/ambient RH): 519 IU/5 ml
- Content after 18 months ([1]; batch 2, 20 °C/ambient RH): 502 IU/5 ml
- Recovery (initial versus nominal) [1]: 92.2%
- Initial content ([1]; batch 1, time 0): 502 IU/5 ml
- Initial content ([1]; batch 2, time 0): 494 IU/5 ml

Compound: Nc1nc2ncc(CNc3ccc(C(=O)N[C@@H](CCC(=O)O)C(=O)O)cc3)nc2c(=O)[nH]1 [Folic acid]
- Degraded [2]: 21%
- Vitamin content after 18 months ([2]; batch 1, 20 °C/ambient RH): 71.4 μg/10 ml
- Vitamin content after 18 months ([2]; batch 2, 20 °C/ambient RH): 72.5 μg/10 ml
- Initial vitamin content ([2]; production batch 1, time 0): 92.1 μg/10 ml
- Initial vitamin content ([2]; production batch 2, time 0): 92.2 μg/10 ml
- Recovery (initial versus nominal) [2]: 102.4%
- Degraded [1]: 7.9%
- Content after 18 months ([1]; batch 1, 20 °C/ambient RH): 255 μg/5 ml
- Content after 18 months ([1]; batch 2, 20 °C/ambient RH): 244 μg/5 ml
- Recovery (initial versus nominal) [1]: 96.8%
- Initial content ([1]; batch 1, time 0): 276 μg/5 ml
- Initial content ([1]; batch 2, time 0): 266 μg/5 ml

Compound: CC1=C(/C=C/C(C)=C/C=C/C(C)=C/C=C/C=C(C)/C=C/C=C(C)/C=C/C2=C(C)CCCC2(C)C)C(C)(C)CCC1 [Betacaroten]
- Degraded [1]: +6.3%
- Content after 18 months ([1]; batch 1, 20 °C/ambient RH): 2315 IU/5 ml
- Content after 18 months ([1]; batch 2, 20 °C/ambient RH): 2279 IU/5 ml
- Recovery (initial versus nominal) [1]: 110.8%
- Initial content ([1]; batch 1, time 0): 2172 IU/5 ml
- Initial content ([1]; batch 2, time 0): 2148 IU/5 ml

Compound: [Zn] [Zinc]
- Degraded [1]: 1.2%
- Content after 18 months ([1]; batch 1, 20 °C/ambient RH): 8.4 mg/5 ml
- Content after 18 months ([1]; batch 2, 20 °C/ambient RH): 8.2 mg/5 ml
- Recovery (initial versus nominal) [1]: 102.5%
- Initial content ([1]; batch 1, time 0): 8.2, 8.2 mg/5 ml
- Initial content ([1]; batch 2, time 0): 8.2, 8.2 mg/5 ml

Compound: Cc1c(C)c2c(c(C)c1O)CC[C@@](C)(CCC[C@H](C)CCC[C@H](C)CCCC(C)C)O2 [D-α-tocopherol]
- Degraded [2]: 2%
- Vitamin content after 18 months ([2]; batch 1, 20 °C/ambient RH): 6.1 mg/10 ml
- Vitamin content after 18 months ([2]; batch 2, 20 °C/ambient RH): 6.2 mg/10 ml
- Initial vitamin content ([2]; production batch 1, time 0): 6.2 mg/10 ml
- Initial vitamin content ([2]; production batch 2, time 0): 6.3 mg/10 ml
- Recovery (initial versus nominal) [2]: 99.2%
- Degraded [1]: 4.0%
- Content after 18 months ([1]; batch 1, 20 °C/ambient RH): 12.0 IU/5 ml
- Content after 18 months ([1]; batch 2, 20 °C/ambient RH): 11.9 IU/5 ml
- Recovery (initial versus nominal) [1]: 103.8%
- Initial content ([1]; batch 1, time 0): 12.5 IU/5 ml
- Initial content ([1]; batch 2, time 0): 12.4 IU/5 ml

Compound: O=C1O[C@H]([C@@H](O)CO)C(O)=C1O [Ascorbic acid]
- Degraded [2]: 20%
- Vitamin content after 18 months ([2]; batch 1, 20 °C/ambient RH): 42.8 mg/10 ml
- Vitamin content after 18 months ([2]; batch 2, 20 °C/ambient RH): 43.6 mg/10 ml
- Initial vitamin content ([2]; production batch 1, time 0): 54.4 mg/10 ml
- Initial vitamin content ([2]; production batch 2, time 0): 55.3 mg/10 ml
- Recovery (initial versus nominal) [2]: 97.4%
- Degraded [1]: 32.8%
- Content after 18 months ([1]; batch 1, 20 °C/ambient RH): 35.7 mg/5 ml
- Content after 18 months ([1]; batch 2, 20 °C/ambient RH): 34.9 mg/5 ml
- Recovery (initial versus nominal) [1]: 93.8%
- Initial content ([1]; batch 1, time 0): 53.0 mg/5 ml
- Initial content ([1]; batch 2, time 0): 52.0 mg/5 ml

Reference: patent US20040043043A1, “Preparation of emulsions and concentrates thereof” (priority 2000, published 2004)
